Assays:
Assay in all cases: Other kinases, single-concentration inhibition (Table 3)
Details in all cases: 1 μM
[1] = molecular target: T1, Abl(h) (Homo sapiens, UniProt P00519); format: biochemical
T1 construct: purchased Caliper Life Sciences
Method: (§1) The Aurora and other kinase assays described here were performed on two Caliper Life Sciences systems, the LC3000 and the Desktop Profiler. These provide data on enzyme activity via measurement of the relative amounts of phosphorylated or unphosphorylated fluorescently labelled substrate peptide at the end of an enzymatic reaction. These different states of peptide are resolved by applying a potential difference across the sample. The presence of a charged phosphate group on the product (as opposed to the substrate) causes a different peptide mobility between the two peptides. This is visualized by excitation of a fluorescent label on the substrate and product peptides and represented as peaks within the analysis software.
(§2) The Desktop Profiler utilizes the same principal as the LC 3000 for calculating percentage conversion of a substrate to product. Caliper Life Sciences provided proprietary flash frozen pre-made 384 well plates containing selected kinases. Each column in the 384 well plate contained a particular selected kinase. A second plate, the ‘substrate plate’ contained a mix of fluorescently labeled peptide substrate and ATP. These were arranged in columns so that transfer for substrate plate to enzyme plate provided the correct enzyme with the correct substrate/ATP concentration.
(§3) Compounds were added to a thawed enzyme plate in the desired format, in single concentrations. Reactions were initiated by transfer of the ubstrate/ATP mix from the substrate plate. The enzyme plate was incubated for 90 mins at 25 °C. The reaction was stopped by addition of […] of Stop Buffer (100 mM HEPES pH 7.5, 0.015% Brij-35, 10 mM EDTA (Sigma, E7889)).
(§4) Plates were read in a manner identical to that of the LC3000, and the ratio between substrate and product peaks provided the activity of the enzyme in that well. This was best represented by a plate heat map which colors each well by percent inhibition as compared to positive and negative controls (no inhibitors and no ATP respectively).

[2] = molecular target: T2, CDK2/cyclinE(h) (Homo sapiens, UniProt P24941); format: biochemical
T2 construct: purchased Caliper Life Sciences
Method: as §1, §2, §3, §4

[3] = molecular target: T3, FAK(h) (Homo sapiens, UniProt Q05397); format: biochemical
T3 construct: purchased Caliper Life Sciences
T3 sequence (Q05397 whole entry): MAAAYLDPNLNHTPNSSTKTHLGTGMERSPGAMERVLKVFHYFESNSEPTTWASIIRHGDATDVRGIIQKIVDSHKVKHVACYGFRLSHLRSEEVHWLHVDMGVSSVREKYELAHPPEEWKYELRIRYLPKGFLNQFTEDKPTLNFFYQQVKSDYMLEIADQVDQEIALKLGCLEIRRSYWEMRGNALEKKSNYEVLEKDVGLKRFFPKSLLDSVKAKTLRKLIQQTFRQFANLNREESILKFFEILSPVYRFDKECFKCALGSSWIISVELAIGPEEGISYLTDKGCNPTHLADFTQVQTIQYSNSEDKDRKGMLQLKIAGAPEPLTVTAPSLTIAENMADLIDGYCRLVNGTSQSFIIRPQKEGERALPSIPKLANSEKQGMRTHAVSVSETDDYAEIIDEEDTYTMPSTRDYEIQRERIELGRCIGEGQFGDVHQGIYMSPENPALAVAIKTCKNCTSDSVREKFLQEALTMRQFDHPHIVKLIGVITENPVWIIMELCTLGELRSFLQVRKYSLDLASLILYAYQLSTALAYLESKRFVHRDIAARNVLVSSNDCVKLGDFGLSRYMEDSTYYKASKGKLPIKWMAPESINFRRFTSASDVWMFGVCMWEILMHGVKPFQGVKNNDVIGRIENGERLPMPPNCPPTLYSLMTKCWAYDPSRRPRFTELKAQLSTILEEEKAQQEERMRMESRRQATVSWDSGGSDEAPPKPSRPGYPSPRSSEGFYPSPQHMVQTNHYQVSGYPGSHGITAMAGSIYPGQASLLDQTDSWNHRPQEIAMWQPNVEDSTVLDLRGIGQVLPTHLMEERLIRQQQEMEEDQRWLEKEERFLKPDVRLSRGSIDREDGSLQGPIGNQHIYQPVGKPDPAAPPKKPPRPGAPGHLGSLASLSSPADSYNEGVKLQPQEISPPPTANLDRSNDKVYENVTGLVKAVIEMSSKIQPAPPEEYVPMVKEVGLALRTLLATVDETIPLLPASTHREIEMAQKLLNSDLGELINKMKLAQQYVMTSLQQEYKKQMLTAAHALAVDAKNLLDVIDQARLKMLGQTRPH
Method: as §1, §2, §3, §4

[4] = molecular target: T4, FGFR4(h) (Homo sapiens, UniProt P22455); format: biochemical
T4 construct: purchased Caliper Life Sciences
Method: as §1, §2, §3, §4

[5] = molecular target: T5, JAK2(h) (Homo sapiens, UniProt O60674); format: biochemical
T5 construct: purchased Caliper Life Sciences
Method: as §1, §2, §3, §4

[6] = molecular target: T6, PDK1(h) (Homo sapiens, UniProt O15530); format: biochemical
T6 construct: purchased Caliper Life Sciences
T6 sequence (O15530 1-556): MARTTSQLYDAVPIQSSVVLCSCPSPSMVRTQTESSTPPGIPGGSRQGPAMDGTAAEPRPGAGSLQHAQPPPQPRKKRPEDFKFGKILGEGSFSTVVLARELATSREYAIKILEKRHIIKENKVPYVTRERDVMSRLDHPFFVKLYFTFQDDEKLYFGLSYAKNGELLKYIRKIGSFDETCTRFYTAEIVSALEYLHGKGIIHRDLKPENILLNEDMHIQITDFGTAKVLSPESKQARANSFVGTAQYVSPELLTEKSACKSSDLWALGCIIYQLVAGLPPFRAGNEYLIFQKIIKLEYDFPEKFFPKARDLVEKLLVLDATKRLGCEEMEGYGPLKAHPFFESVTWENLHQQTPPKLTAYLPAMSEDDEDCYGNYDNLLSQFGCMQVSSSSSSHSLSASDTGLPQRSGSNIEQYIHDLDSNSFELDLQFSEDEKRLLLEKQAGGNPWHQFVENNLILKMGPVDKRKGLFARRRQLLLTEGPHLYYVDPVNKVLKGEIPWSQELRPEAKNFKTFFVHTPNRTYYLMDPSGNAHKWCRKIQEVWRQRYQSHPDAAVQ
Method: as §1, §2, §3, §4

[7] = molecular target: T7, PKCα(h) (Homo sapiens, UniProt P17252); format: biochemical
T7 construct: purchased Caliper Life Sciences
Method: as §1, §2, §3, §4

[8] = molecular target: T8, Pyk2(h) (Homo sapiens, UniProt Q14289); format: biochemical
T8 construct: purchased Caliper Life Sciences
Method: as §1, §2, §3, §4

[9] = molecular target: T9, ROCK-II(h) (Homo sapiens, UniProt O75116); format: biochemical
T9 construct: purchased Caliper Life Sciences
T9 sequence (O75116 whole entry): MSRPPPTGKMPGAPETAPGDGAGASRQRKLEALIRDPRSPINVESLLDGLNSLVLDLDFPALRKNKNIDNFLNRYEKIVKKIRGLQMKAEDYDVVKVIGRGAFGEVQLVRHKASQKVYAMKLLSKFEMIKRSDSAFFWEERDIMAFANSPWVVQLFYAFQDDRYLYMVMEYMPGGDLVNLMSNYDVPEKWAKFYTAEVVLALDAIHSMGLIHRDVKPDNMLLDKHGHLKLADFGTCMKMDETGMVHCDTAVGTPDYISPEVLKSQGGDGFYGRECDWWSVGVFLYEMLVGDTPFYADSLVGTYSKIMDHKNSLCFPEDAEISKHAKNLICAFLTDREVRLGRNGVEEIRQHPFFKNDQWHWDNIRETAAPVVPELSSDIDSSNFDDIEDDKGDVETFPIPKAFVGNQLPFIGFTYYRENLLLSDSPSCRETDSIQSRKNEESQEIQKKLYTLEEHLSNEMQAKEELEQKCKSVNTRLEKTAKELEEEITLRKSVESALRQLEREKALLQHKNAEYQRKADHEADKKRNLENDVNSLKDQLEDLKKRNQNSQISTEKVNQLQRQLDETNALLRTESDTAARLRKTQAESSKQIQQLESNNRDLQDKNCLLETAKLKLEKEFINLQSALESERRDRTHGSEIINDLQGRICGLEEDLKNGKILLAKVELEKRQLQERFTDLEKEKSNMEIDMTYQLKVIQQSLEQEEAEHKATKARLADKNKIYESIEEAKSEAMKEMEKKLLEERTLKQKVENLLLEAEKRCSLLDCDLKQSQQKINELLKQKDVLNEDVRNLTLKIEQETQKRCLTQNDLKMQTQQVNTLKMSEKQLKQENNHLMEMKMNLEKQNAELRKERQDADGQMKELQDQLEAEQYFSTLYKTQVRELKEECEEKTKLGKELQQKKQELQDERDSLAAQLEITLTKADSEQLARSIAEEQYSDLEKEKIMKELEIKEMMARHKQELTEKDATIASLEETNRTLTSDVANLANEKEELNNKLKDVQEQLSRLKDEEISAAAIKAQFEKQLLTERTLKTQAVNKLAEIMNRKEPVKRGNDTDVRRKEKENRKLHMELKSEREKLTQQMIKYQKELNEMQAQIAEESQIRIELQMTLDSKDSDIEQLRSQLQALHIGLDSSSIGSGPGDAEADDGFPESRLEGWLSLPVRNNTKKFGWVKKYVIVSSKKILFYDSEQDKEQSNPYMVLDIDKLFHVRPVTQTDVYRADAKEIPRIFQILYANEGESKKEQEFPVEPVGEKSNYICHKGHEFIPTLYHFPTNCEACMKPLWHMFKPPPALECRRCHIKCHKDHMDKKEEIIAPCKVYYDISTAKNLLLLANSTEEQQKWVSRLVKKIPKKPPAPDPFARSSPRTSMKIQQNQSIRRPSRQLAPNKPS
Method: as §1, §2, §3, §4

[10] = molecular target: T10, Ret(h) (Homo sapiens, UniProt P07949); format: biochemical
T10 construct: purchased Caliper Life Sciences
T10 sequence (P07949 29-1114): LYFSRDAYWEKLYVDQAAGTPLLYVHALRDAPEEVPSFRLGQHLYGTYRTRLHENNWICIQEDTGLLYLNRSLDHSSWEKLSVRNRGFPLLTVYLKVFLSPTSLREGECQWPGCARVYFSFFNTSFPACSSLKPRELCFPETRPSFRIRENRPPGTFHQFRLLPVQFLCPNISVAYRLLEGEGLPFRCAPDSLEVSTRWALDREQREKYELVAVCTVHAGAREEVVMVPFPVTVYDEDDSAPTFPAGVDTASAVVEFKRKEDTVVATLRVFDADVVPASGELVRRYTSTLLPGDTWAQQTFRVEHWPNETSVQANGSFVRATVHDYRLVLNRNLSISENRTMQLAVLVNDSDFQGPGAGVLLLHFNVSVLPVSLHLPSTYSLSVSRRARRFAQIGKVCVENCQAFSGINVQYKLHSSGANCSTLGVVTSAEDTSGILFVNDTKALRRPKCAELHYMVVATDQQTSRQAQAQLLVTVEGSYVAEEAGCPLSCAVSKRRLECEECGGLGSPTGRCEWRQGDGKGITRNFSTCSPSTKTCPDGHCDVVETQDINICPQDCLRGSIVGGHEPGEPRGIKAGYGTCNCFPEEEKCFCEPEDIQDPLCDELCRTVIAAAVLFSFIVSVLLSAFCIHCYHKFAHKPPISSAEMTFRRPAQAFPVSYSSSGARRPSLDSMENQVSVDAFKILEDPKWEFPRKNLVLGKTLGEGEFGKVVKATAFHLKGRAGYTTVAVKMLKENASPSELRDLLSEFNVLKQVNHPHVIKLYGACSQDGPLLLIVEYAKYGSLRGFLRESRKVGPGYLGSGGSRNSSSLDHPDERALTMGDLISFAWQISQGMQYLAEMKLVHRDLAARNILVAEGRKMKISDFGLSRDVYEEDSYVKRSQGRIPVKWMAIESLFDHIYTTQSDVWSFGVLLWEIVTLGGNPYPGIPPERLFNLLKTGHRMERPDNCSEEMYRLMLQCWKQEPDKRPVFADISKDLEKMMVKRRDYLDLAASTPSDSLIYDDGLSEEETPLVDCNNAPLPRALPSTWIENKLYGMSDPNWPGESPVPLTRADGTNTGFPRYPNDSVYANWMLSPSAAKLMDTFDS
Method: as §1, §2, §3, §4

[11] = molecular target: T11, Rsk1(h) (Homo sapiens, UniProt Q15418); format: biochemical
T11 construct: purchased Caliper Life Sciences
Method: as §1, §2, §3, §4

[12] = molecular target: T12, TrkA(h) (Homo sapiens, UniProt P04629); format: biochemical
T12 construct: purchased Caliper Life Sciences
Method: as §1, §2, §3, §4

[13] = molecular target: T13, TrkB(h) (Homo sapiens, UniProt Q16620); format: biochemical
T13 construct: purchased Caliper Life Sciences
Method: as §1, §2, §3, §4

[14] = molecular target: T14, ZAP-70(h) (Homo sapiens, UniProt P43403); format: biochemical
T14 construct: purchased Caliper Life Sciences
T14 sequence (P43403 1-619): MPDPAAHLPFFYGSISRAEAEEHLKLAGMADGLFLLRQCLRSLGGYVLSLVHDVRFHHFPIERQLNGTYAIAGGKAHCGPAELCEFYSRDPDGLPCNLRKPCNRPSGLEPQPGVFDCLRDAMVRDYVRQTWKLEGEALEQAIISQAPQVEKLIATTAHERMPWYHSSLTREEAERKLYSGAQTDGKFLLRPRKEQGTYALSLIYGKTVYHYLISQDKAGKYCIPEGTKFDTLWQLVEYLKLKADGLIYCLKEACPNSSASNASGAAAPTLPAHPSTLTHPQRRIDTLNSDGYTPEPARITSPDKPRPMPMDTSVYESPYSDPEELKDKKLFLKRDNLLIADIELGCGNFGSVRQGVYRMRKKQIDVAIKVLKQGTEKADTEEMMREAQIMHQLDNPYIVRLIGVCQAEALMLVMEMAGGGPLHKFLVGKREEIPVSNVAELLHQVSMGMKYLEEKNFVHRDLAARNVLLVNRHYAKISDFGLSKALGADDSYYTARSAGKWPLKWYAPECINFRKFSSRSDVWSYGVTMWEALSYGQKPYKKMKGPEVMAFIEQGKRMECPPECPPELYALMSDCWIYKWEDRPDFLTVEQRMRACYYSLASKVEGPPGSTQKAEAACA
Method: as §1, §2, §3, §4

[15] = molecular target: T15, ZIPK(h) (Homo sapiens, UniProt O43293); format: biochemical
T15 construct: purchased Caliper Life Sciences
T15 sequence (O43293 whole entry): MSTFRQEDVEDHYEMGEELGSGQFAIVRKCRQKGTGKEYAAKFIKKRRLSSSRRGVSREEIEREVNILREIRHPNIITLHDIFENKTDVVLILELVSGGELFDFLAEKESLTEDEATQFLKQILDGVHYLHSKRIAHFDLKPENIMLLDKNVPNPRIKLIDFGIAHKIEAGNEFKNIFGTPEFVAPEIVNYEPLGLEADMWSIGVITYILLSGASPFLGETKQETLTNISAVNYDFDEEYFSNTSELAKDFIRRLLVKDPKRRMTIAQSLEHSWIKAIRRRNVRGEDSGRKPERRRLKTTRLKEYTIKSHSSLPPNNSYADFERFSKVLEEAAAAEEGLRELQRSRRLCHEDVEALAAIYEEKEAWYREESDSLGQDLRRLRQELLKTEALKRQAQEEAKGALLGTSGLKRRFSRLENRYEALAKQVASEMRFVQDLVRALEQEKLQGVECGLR
Method: as §1, §2, §3, §4

[16] = molecular target: T16, cKit(D816V)(h) (Homo sapiens, UniProt P10721, D816V); format: biochemical
T16 construct: purchased Caliper Life Sciences
T16 sequence (P10721 26-976 D816V): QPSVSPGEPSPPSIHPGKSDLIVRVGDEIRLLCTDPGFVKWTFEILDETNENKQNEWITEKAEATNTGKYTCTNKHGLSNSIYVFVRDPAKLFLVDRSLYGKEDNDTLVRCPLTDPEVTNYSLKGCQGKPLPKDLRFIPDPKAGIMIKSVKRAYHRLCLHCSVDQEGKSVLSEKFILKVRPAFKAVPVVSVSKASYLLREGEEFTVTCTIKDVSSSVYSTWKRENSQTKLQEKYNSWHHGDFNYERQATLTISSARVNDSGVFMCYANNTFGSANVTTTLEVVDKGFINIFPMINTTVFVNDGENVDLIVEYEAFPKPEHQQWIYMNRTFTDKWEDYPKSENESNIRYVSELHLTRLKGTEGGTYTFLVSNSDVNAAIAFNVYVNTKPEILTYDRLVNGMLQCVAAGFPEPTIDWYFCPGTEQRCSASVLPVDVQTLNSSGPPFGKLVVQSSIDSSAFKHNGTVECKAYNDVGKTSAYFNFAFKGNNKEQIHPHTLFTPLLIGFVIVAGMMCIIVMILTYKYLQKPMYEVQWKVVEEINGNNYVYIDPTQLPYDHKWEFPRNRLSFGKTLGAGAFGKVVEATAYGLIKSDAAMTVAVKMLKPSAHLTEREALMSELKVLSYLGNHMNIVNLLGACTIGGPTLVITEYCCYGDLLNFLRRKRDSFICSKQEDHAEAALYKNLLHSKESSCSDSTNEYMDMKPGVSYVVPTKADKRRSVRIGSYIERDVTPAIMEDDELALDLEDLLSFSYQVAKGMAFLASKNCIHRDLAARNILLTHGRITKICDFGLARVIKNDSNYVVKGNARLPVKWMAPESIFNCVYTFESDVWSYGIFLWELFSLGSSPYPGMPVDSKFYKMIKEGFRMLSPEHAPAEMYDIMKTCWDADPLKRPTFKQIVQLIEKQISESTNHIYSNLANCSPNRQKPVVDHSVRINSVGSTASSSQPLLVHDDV
Method: as §1, §2, §3, §4

[17] = system: AMPK(r); format: biochemical, rat
Method: as §1, §2, §3, §4

Row | inhibition at 1 µM [1] | % inhibition CDK2/cyclinE(h) [2] | % inhibition FAK(h) [3] | % inhibition FGFR4(h) [4] | % inhibition JAK2(h) [5] | % inhibition PDK1(h) [6] | % inhibition PKCα(h) [7] | % inhibition Pyk2(h) [8] | % inhibition ROCK-II(h) [9] | % inhibition Ret(h) [10] | % inhibition Rsk1(h) [11] | % inhibition TrkA(h) [12] | % inhibition TrkB(h) [13] | % inhibition ZAP-70(h) [14] | % inhibition ZIPK(h) [15] | % inhibition cKit(D816V)(h) [16] | SMILES | % inhibition AMPK(r) [17]
1 | -4% | 100% | 30% | 50% | 60% | 108% | 103% | 31% | 120% | 1% | 30% | 5% | 1% | 112% | 109% | 97% | CN1CCN(c2ccc3cc2NC(=O)CS[C@@H]2C[C@@H]4C[C@H]2[C@@H](Nc2nc(ncc2F)N3)[C@H]4C(N)=O)CC1 [Example 24] | 68%
2 | -1% | 15% | 35% | 53% | 16% | 88% | 81% | 99% | 94% | 50% | 41% | 1% | 3% | 112% | 106% | 112% | N#Cc1ccc2cc1NC(=O)CS[C@@H]1C[C@@H]3C[C@H]1[C@@H](Nc1nc(ncc1F)N2)[C@H]3C(N)=O [Example 26] | 79%
3 | 3% | 60% | 41% | 96% | 62% | 86% | 102% | 34% | 110% | 4% | 38% | 1% | 5% | 125% | 97% | 95% | NC(=O)[C@H]1[C@H]2C[C@H]3[C@H]1Nc1nc(ncc1F)Nc1cccc(c1)NC(=O)CS[C@@H]3C2 [Example 27] | 71%
